Publication PMC8330742, “New benzothieno[2,3-c]pyridines as non-steroidal CYP17 inhibitors: design, synthesis, anticancer screening, apoptosis induction, and in silico ADME profile studies” (Journal of Enzyme Inhibition and Medicinal Chemistry, 2021)
Several values for one entry are separate records, joined by “and”; a condition that tells them apart may be missing. Identical values can stand only once.

Assays:
HS 578 T = assay: NCI-60 SRB screen; assay type: cell-based, human; details: five dose;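 for IC50: half-maximal inhibitory concentration read as cell viability unlike GI50 net growth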
CYP17 enzyme = CYP17 enzyme ELISA in mice prostate cancer model; assay type: in vivo; details: 5 mg/kg i.p., 5 days a week, ELISA of tissue (Mice testis)
Description: (§1) A total of 16 mice from the TRAMP/FVB background ([…], male, average 45 days, average weight […], mice with prostate cancer) were taken and divided into 2 groups with 8 animals in each group. One group of mice was given a drug in 0.2 ml of DMSO and phosphate-buffered saline (1:10) ratio (5 mg/kg body weight, i.p., 5 days a week). The control group animals were treated with 0.2 ml of DMSO and phosphate-buffered saline (1:10) ratio. A total of eight mice, four animals from each group, were examined at 13 weeks of age, and the remaining animals from each group were examined at 20 weeks for prostate tumour development. Treatment was stopped 24 h before killing the animals.
BioSource 2704060 96 assay kit is a sandwich enzyme immunoassay for in vitro quantitative measurement of CYP17 enzyme activity in mouse tissue homogenates, cell lysates, cell culture supernatant, and other biological fluids. Tested tissues were rinsed in ice-cold PBS to remove excess blood and weighed before homogenisation. The tissues were minced and homogenised in fresh lysis buffer with a glass homogeniser. (catalog: IS007, different lysis buffer needs to be chosen based on subcellular location of the target protein) (w:v = 1:20–1:50, e.g. 1 ml lysis buffer is added in 20–50 mg tissue sample) The resulting suspension was sonicated with an ultrasonic cell disrupter till the solution was clarified. The homogenates were centrifuged for 5 min at 10,000 × g, and the supernatant was collected. An Aliquot was assayed and stored at ≤ −20 °C.
The assay sample and standard were incubated together with CYP-HRP conjugate in an appropriate number of microplates pre-coated with an antibody specific for the CYP17 enzyme for 1 h. After the incubation period, the wells were decanted and washed five times. The wells were then incubated with a substrate for the HRP enzyme. […] Colour intensity was measured spectrophotometrically at 450 nm in a microplate reader. […]
Assay procedures: Wells for a standard, blank, and sample were prepared. […] The absorbance was measured immediately at 450 nm.

plasma testosterone = assay: Testosterone ELISA assay in mice prostate cancer model; assay type: in vivo
Description: as §1
The BioVendor mouse/rat testosterone ELISA assay is a competitive immunoassay for the measurement of testosterone in rat and mouse serum or plasma based on the principle of competitive binding. An unknown amount of testosterone present in the sample (plasma or serum) and a known amount of testosterone conjugated to horseradish peroxidase compete for the binding sites of testosterone antiserum coated to the wells of a microplate. The sample was incubated with the microplate for 1 h, then washed four times. The HRP substrate solution was added followed by the stop solution. Colour change has been observed, and the optical density was measured at 450 nm.
Assay procedures: Sufficient number of microplate wells were prepared to accommodate standard and samples in duplicates. The standard, sample, and control (10 µL each) were dispensed with new disposable tips into appropriate wells. Incubation buffer 100 µL was dispensed into each well. Afterward, enzyme conjugate (50 µL) was added to each well and incubated for 60 min at room temperature on a microplate mixer. The content of the wells was discarded, and the wells were rinsed 4 times with diluted wash solution (300 µL per well). The substrate solution (200 µL) was added to each well and incubated in the dark without shaking for 30 min. The reaction was stopped by adding a stop solution (2 N hydrochloric acid solution, 50 µL) to each well. The absorbance of each well was determined at 450 nm.

PC-3 cells = assay: Cell cycle analysis (propidium iodide, flow cytometer); assay type: cell-based, human; details: PC-3, 2.34 µM, 24 h
Description: The prostate PC-3 cells were placed in a six-well plate at 1 × 10^5 conc. of cells/well, then incubated for 24 h. The cells were treated with 2.34 µM of compound 5c or (0.1% DMSO) for 24 h. Thereafter, cells were collected and fixed for 12 h using ice-cold 70% ethanol at 4 °C. Then, ethanol was removed, and the cells were washed with cold Phosphate Buffer Saline (PBS) and incubated for 30 min at 37 °C in 0.5 ml of PBS. The cells were stained for 30 min with propidium iodide in the dark. The flow cytometer was used to detect DNA contents.

N#CC1C(=O)NC(c2ccccc2[N+](=O)[O-])c2sc3c(F)cccc3c21 (stereo not shown) [Compound 5c, 4-Cyano-8-fluoro-1-(2-nitrophenyl)-1,2-dihydro[1]benzothieno[2,3-c] pyridin-3(4H)-one]
GI50 (HS 578 T; Homo sapiens): 18.1 µM
IC50 (HS 578 T; Homo sapiens): > 100 µM
TGI (HS 578 T): 100 µM
CYP17 enzyme aver. conc. (CYP17 enzyme): 15.8 nM and 15.80 nM and 15.80 ± 0.20 nM
potency relative to abiraterone (testosterone inhibition) (plasma testosterone): 1.1 folds
Plasma testosterone aver. conc. (plasma testosterone; 5 mg/kg i.p., 5 days a week, ELISA, 5 mg/kg): 12.26 nM and 12.26 ± 0.17 nM
DNA content (%) G0-G1 (PC-3 cells): 49.61%
DNA content (%) G2/M (PC-3 cells): 6.21%
DNA content (%) Pre-G1 (PC-3 cells): 42.55%
DNA content (%) S (PC-3 cells): 44.18%
